# Reference: US12473289B2, “Heterocyclic compounds as delta-5 desaturase inhibitors and methods of use” (Amgen Inc., priority 2019, dated 2025)
# pIC50: −log10 of the molar value.
# Target: Delta-5-Desaturase (D5D) (Homo sapiens (Human), UniProt O60427)
# Assay: In vitro measurement of Delta-5-Desaturase inhibitory activity using DGLA-CoA and Arachidonyl-CoA mass spectrometric assays
# Assay type: biochemical
# Details: membrane preparations of D5D-overexpressing HEK293 6E cells; averaged over at least two independent runs
# Protocol: In vitro Measurement of Delta-5-Desaturase Inhibitory Activity using DGLA-CoA and Arachidonyl-CoA Mass Spectrometric Assays
# Membrane preparations of D5D-overexpressing HEK293 6E cells were prepared in which the total protein concentration was 5.6 mg/mL. Stock D5D membrane preparations were diluted in D5D assay buffer (25 mM 2-amino-2-(hydroxymethyl)-1,3-propanediol, pH 7.5 containing 10 mM MgCl2, 1 mM octyl glucoside (SigmaAldrich 0-8001), 1 mM tris(2-carboxyethyl)phosphine hydrochloride (SigmaAldrich 646547)) to a final D5D membrane concentration of 10 μg/mL in an assay plate containing serially diluted test compounds. To 15 μL of this D5D preparation was added 15 μL of a substrate solution (0.25 mM NADH (nicotinamide adenine dinucleotide, Roche Diag. 10107735001), 0.25 mM adenosine triphosphate (SigmaAldrich A-3377), 0.05 mM coenzyme A hydrate (SigmaAldrich C-4282), and 0.01 mM DGLA (dihomo-g-linolenic acid, Sigma E-4504) in the same D5D assay buffer. After one-hour incubation at ambient temperature acetonitrile (30 μL) was added to quench the reaction and plates were centrifuged for 10 min @3,000 rpm. Mass spectrometric analysis involved a Rapidfire 360 SPE system coupled to an ABSciex API4000 Triple Quadrupole mass spectrometer using a C18 SPE cartridge (G9203-80105) with ionization in negative mode (solvent A=100% water; solvent B=100% acetonitrile, each solvent containing 5 mM ammonium acetate). DGLA-CoA and Arachidonyl-CoA were detected by multiple reaction monitoring (MRM) of the doubly charged parent ions at m/z 526.6 and 525.6, respectively.
# Sx is value from unknown sample, So is value from DMSO alone and Sc is value from no enzyme well. For CRC analysis, the % of inhibitions were analyzed with 4 Parameter Logistic Model or Sigmoidal Dose-Response Model using XLfit (IDBS, Guilford, UK). The potency of the test item was expressed as IC50 nM, corresponding to the test item concentration able to inhibit the 50% of the enzyme maximal response. IC50 values were averaged values determined by at least two independent runs.
# This assay may be used to test any of the compounds described herein to assess and characterize a compound's ability to inhibit D5D.
# Sequence of Delta-5-Desaturase (D5D) (O60427 whole entry, species assumed): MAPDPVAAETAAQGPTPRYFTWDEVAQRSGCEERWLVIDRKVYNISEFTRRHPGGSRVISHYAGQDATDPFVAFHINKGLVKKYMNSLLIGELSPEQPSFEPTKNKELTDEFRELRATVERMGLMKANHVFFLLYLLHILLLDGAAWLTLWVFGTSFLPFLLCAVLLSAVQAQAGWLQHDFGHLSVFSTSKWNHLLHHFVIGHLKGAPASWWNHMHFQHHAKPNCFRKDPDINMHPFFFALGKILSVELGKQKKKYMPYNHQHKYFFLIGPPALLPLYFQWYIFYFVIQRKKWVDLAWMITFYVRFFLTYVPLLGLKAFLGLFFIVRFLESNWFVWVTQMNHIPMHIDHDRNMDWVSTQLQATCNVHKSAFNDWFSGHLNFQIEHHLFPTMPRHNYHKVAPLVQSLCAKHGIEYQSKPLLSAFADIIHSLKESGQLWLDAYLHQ
row,Compound,pIC50
1,"O=c1c(-c2ccc(OCC(F)(F)F)cc2)c(C(F)(F)F)nc2cc(C3CNC3)ccn12 [Example 28, 8-(3-Azetidinyl)-3-(4-(2,2,2-trifluoroethoxy)phenyl)-2-(trifluoromethyl)-4H-pyrido[1,2-a]pyrimidin-4-one]",5.53
2,"C=Cc1ccn2c(=O)c(-c3ccc(OCC(F)(F)F)cc3)c(C(F)(F)F)nc2c1 [Example 2-8, 8-ethenyl-3-(4-(2,2,2-trifluoroethoxy)phenyl)-2-(trifluoromethyl)-4H-pyrido[1,2-a]pyrimidin-4-one]",7.60
3,"CN(C)c1ccn2c(=O)c(-c3ccc(OCC(F)(F)F)cc3)c(C(F)(F)F)nc2c1 [Example 1-28, 8-(dimethylamino)-3-(4-(2,2,2-trifluoroethoxy)phenyl)-2-(trifluoromethyl)-4H-pyrido[1,2-a]pyrimidine-4-one]",7.36
4,"COc1cnc2nc(C(F)(F)F)c(-c3cnn(CC(F)(F)C(F)(F)F)c3)c(=O)n2c1 [Example 40-1, 7-Methoxy-3-[1-(2,2,3,3,3-pentafluoropropyl)-1H-pyrazol-4-yl]-2-(trifluoromethyl)-4H-[1,3]diazino[1,2-a]pyrimidin-4-one]",6.82
5,"O=c1ccn2c(=O)c(-c3ccc(OCCF)cc3)c(C(F)(F)F)nc2[nH]1 [Example 1-56, 7-(4-(2-fluoroethoxy)phenyl)-8-(trifluoromethyl)-2H-pyrimido[1,2-a]pyrimidine-2,6(1H)-dione]",5.03
6,"COc1ccn2c(=O)c(-c3ccc(OC(F)F)cc3)c(C(F)(F)F)nc2c1 [Example 1-54, 3-(4-(difluoromethoxy)phenyl)-8-methoxy-2-(trifluoromethyl)-4H-pyrido[1,2-a]pyrimidin-4-one]",8.18
7,"O=C(O)c1ccn2c(=O)c(-c3ccc(OCC(F)(F)F)cc3)c(C(F)(F)F)nc2c1 [Example 2-2, 4-oxo-3-(4-(2,2,2-trifluoroethoxy)phenyl)-2-(trifluoromethyl)-4H-pyrido[1,2-a]pyrimidine-8-carboxylic acid]",6.19
8,"[2H]C([2H])([2H])Oc1ccn2c(=O)c(-c3ccc(OCCF)cc3)c(C(F)(F)F)nc2n1 [Example 1-55, 3-(4-(2-fluoroethoxy)phenyl)-8-(methyloxy-d3)-2-(trifluoromethyl)-4H-pyrimido[1,2-a]pyrimidin-4-one]",6.95
9,"[2H]C([2H])([2H])c1ccn2c(=O)c(-c3ccc(OCC(F)(F)F)cc3)c(C(F)(F)F)nc2c1 [Example 2-5, 8-(methyl-d3)-3-(4-(2,2,2-trifluoroethoxy)phenyl)-2-(trifluoromethyl)-4H-pyrido[1,2-a]pyrimidin-4-one]",8.41
10,"COc1ccn2c(=O)c(-c3ccc(OCCF)cc3)c(C(F)(F)F)nc2n1 [Example 1-57, 3-(4-(2-fluoroethoxy)phenyl)-8-methoxy-2-(trifluoromethyl)-4H-pyrimido[1,2-a]pyrimidin-4-one]",6.65
11,"CNC(=O)c1ccn2c(=O)c(-c3cnn(CC(F)(F)C(F)(F)F)c3)c(C(F)(F)F)nc2c1 [Example 12-5, N-methyl-4-oxo-3-(1-(2,2,3,3,3-pentafluoropropyl)-1H-pyrazol-4-yl)-2-(trifluoromethyl)-4H-pyrido[1,2-a]pyrimidine-8-carboxamide]",6.50
12,"COc1ccn2c(=O)c(-c3ccc(OC(C)C#N)cc3)c(C(F)(F)F)nc2c1 (stereo not shown) [Example 8-4, 2-(4-(8-methoxy-4-oxo-2-(trifluoromethyl)-4H-pyrido[1,2-a]pyrimidin-3-yl)phenoxy)propanenitrile]",7.79
13,"COc1ccn2c(=O)c(-c3ccc(OC[C@@H]4CC4(F)F)cc3)c(C(F)(F)F)nc2c1 (single isomer, unassigned) [Example 1-84]",8.57

# Continued, values first:
row,pIC50,Compound
1,7.07,"COc1ccn2c(=O)c(-c3ccn(CC(F)(F)C(F)(F)F)n3)c(C(F)(F)F)nc2c1 [Example 39-1, 8-Methoxy-3-[1-(2,2,3,3,3-pentafluoropropyl)-1H-pyrazol-3-yl]-2-(trifluoromethyl)-4H-pyrido[1,2-a]pyrimidin-4-one]"
2,7.32,"COc1ccn2c(=O)c(-c3cnn(CC4CC4)c3)c(C(F)(F)F)nc2c1 [Example 39-45, 3-[1-(cyclopropylmethyl)-1H-pyrazol-4-yl]-8-methoxy-2-(trifluoromethyl)-4H-pyrido[1,2-a]pyrimidin-4-one]"
3,8.39,"COc1cc2nc(C(F)(F)F)c(-c3ccc(OCC(F)(F)F)cc3)c(=O)n2cc1F [Example 39-57, 7-fluoro-8-methoxy-3-[4-(2,2,2-trifluoroethoxy)phenyl]-2-(trifluoromethyl)-4H-pyrido[1,2-a]pyrimidin-4-one]"
4,< 4.17,"O=c1c(-c2cnn(CC(F)(F)C(F)(F)F)c2)c(C(F)(F)F)nc2ccc(N3CCC3)cn12 [Example 39-28, 7-(azetidin-1-yl)-3-[1-(2,2,3,3,3-pentafluoropropyl)-1H-pyrazol-4-yl]-2-(trifluoromethyl)-4H-pyrido[1,2-a]pyrimidin-4-one]"
5,6.62,"Cc1cnn2c(=O)c(-c3cnn(CCC(F)(F)F)c3)c(C(F)(F)F)nc2c1 [Example 39-44, 8-methyl-2-(trifluoromethyl)-3-[1-(3,3,3-trifluoropropyl)-1H-pyrazol-4-yl]-4H-pyrimido[1,2-b)pyridazin-4-one]"
6,6.15,"C[S+]([O-])c1ccn2c(=O)c(-c3cnn(CC(F)(F)C(F)(F)F)c3)c(C(F)(F)F)nc2c1 (stereo not shown) [Example 15-4, 8-(methylsulfinyl)-3-(1-(2,2,3,3,3-pentafluoropropyl)-1H-pyrazol-4-yl)-2-(trifluoromethyl)-4H-pyrido[1,2-a]pyrimidin-4-one]"
7,7.27,"COc1ccn2c(=O)c(-c3cnc(OCC(F)(F)C(F)(F)F)nc3)c(C(F)(F)F)nc2c1 [Example 39-12, 8-methoxy-3-[2-(2,2,3,3,3-pentafluoropropoxy)pyrimidin-5-yl]-2-(trifluoromethyl)-4H-pyrido[1,2-a]pyrimidin-4-one]"
8,6.38,"Cc1cnn2c(=O)c(-c3cnn(CC4CC(F)(F)C4)c3)c(C(F)(F)F)nc2c1 [Example 39-52, 3-{1-[(3,3-difluorocyclobutyl)methyl]-1H-pyrazol-4-yl)-8-methyl-2-(trifluoromethyl)-4H-pyrimido[1,2-b]pyridazin-4-one]"
9,6.72,"CC[S@+]([O-])c1ccn2c(=O)c(-c3ccc(OCC(F)(F)F)cc3)c(C(F)(F)F)nc2c1 [Example 15-9, 8-((S)-ethylsulfinyl)-3-(4-(2,2,2-trifluoroethoxy)phenyl)-2-(trifluoromethyl)-4H-pyrido[1,2-a]pyrimidin-4-one]"
10,6.75,"Cc1cn2c(=O)c(-c3cnn(CC(F)(F)C(F)(F)F)c3)c(C(F)(F)F)nc2c(C)n1 [Example 39-43, 7,9-dimethyl-3-[1-(2,2,3,3,3-pentafluoropropyl)-1H-pyrazol-4-yl]-2-(trifluoromethyl)-4H-pyrazino[1,2-a]pyrimidin-4-one]"
11,8.92,"Cc1cc2nc(C(F)(F)F)c(-c3cnn(CC(F)(F)C(F)(F)F)c3)c(=O)n2cc1Cl [Example 41-1, 7-Chloro-8-methyl-3-[1-(2,2,3,3,3-pentafluoropropyl)-1H-pyrazol-4-yl]-2-(trifluoromethyl)-4H-pyrido[1,2-a]pyrimidin-4-one]"
12,8.34,"COc1ccn2c(=O)c(-c3cnn(CC4CC(F)(F)C4)c3)c(C(F)(F)F)nc2c1 [Example 39-49, 3-{1-[(3,3-difluorocyclobutyl)methyl]-1H-pyrazol-4-yl}-8-methoxy-2-(trifluoromethyl)-4H-pyrido[1,2-a]pyrimidin-4-one]"
